Consider two compounds from ChEMBL document CHEMBL1811857, “Targeting HIV entry through interaction with envelope glycoprotein 120 (gp120): synthesis and antiviral evaluation of 1,3,5-triazines with aromatic amino acids” (J Med Chem, 2011).

As usually defined, the EC50 is the concentration that produces a half-maximal response. By Kd is commonly meant the equilibrium constant for the complex coming apart.

Active and inactive are the calls of the source. No cut-off for these calls is given here.

Data set [1] concerns Human immunodeficiency virus 1. Briefly: Antiviral activity against HIV1 3B infected in human CEM cells assessed as inhibition of virus-induced cytopathicity after 4 days. In kind it is functional, organism-based. The settings on record: Human immunodeficiency virus 1, 3B, CCRF-CEM, 96 h. (In general: Cytopathic effects are the visible damage that an infection or toxin causes in cultured cells.)

Data set [2] is described as follows: Binding affinity to HIV1 3B recombinant gp-120 after 5 mins using high density (10400 RU) sensor chip by surface plasmon resonance analysis. On the set-up: species or system Human immunodeficiency virus 1.
A short description of data set [3]: Binding affinity to HIV1 ADA recombinant gp-120 after 5 mins using low density (792 RU) sensor chip by surface plasmon resonance analysis. The arrangement: species or system Human immunodeficiency virus 1.
The next data set concerns CCRF-CEM. The data set is described as follows: Cytotoxicity against human CEM cells after 4 days by Coulter counter analysis. In kind it is cell-based. As to conditions: 96 h, read-out: EC50 (the source's name).
Data set [4] deals with Human immunodeficiency virus 1. The data set is described as follows: Binding affinity to HIV1 3B recombinant gp-120 at 12.5 uM after 5 mins by surface plasmon resonance analysis.
Data set [5] relates to PBMC. Briefly: Cytotoxicity against human PBMC at 50 uM after 3 days. In kind it is cell-based. As to conditions: 72 h.
Data set [6] relates to Human immunodeficiency virus 1. Briefly: Antiviral activity against HIV1 3a-L infected in human PBMC cells assessed as inhibition of virus-induced cytopathicity after 4 days. In kind it is functional, organism-based. As to conditions: Human immunodeficiency virus 1, 3a-L, 96 h.
Data set [7] concerns Human immunodeficiency virus 1. The data set is described as follows: Binding affinity to HIV1 3B recombinant gp-120 at 50 uM after 5 mins by surface plasmon resonance analysis.
For data set [8], the system named is Human immunodeficiency virus 2. Briefly: Antiviral activity against HIV2 ROD infected in human CEM cells assessed as inhibition of virus-induced cytopathicity after 4 days. Format: functional, organism-based. The settings on record: Human immunodeficiency virus 2, ISOLATE ROD, CCRF-CEM, 96 h.
In data set [9] the test system is Human immunodeficiency virus 1. The data set is described as follows: Binding affinity to HIV1 3B recombinant gp-120 at 12.5 uM after 5 mins by surface plasmon resonance analysis in presence of […].
The subject of data set [10] is PBMC. Briefly: Induction of HLA-DR expression in human PBMC after 3 days by FACS analysis. Format: functional, cell-based. A general note: A flow cytometer gives signals particle by particle.
In data set [11] the test system is PBMC. The data set is described as follows: Mitogenic activity in human PBMC after 3 days. In kind it is functional, cell-based.
Data set [12] can be described thus: Binding affinity to HIV1 3B recombinant gp-120 after 5 mins using low density (792 RU) sensor chip by surface plasmon resonance analysis. The arrangement: species or system Human immunodeficiency virus 1.
Data set [13] concerns PBMC. The data set is described as follows: Induction of CD69 expression in human PBMC after 3 days by FACS analysis. In kind it is functional, cell-based.
For data set [14], the system named is PBMC. The data set is described as follows: Induction of CD25 expression in human PBMC after 3 days by FACS analysis. In kind it is functional, cell-based.

Take `CCc1c(CNc2nc(N[C@@H](Cc3c[nH]c4ccccc34)C(=O)O)nc(N[C@@H](Cc3c[nH]c4ccccc34)C(=O)O)n2)c(CC)c(CNc2nc(N[C@@H](Cc3c[nH]c4ccccc34)C(=O)O)nc(N[C@@H](Cc3c[nH]c4ccccc34)C(=O)O)n2)c(CC)c1CNc1nc(N[C@@H](Cc2c[nH]c3ccccc23)C(=O)O)nc(N[C@@H](Cc2c[nH]c3ccccc23)C(=O)O)n1`: the EC50 in data set [1] was 16 µM; in data set [6] it was 20 µM; in data set [8], 22 µM. Moreover, the Kd in [2] is 2.61 µM; in data set [3] it was 2.51 µM; in data set [12], 1.61 µM. Further, the CC50 with CCRF-CEM was above 250 µM. Moreover, the outcome in data set [4], in data set [7] and in data set [9] was Active. Also, the Activity result in the data set on PBMC [5] is reported as “Non-toxic”. The result in the data set with PBMC [10], in the data set with PBMC [11], in the data set with PBMC [13] and in the data set on PBMC [14] was inactive.
For the compound `CCc1c(CNc2nc(N[C@@H](Cc3ccc(O)cc3)C(=O)O)nc(N[C@@H](Cc3ccc(O)cc3)C(=O)O)n2)c(CC)c(CNc2nc(N[C@@H](Cc3ccc(O)cc3)C(=O)O)nc(N[C@@H](Cc3ccc(O)cc3)C(=O)O)n2)c(CC)c1CNc1nc(N[C@@H](Cc2ccc(O)cc2)C(=O)O)nc(N[C@@H](Cc2ccc(O)cc2)C(=O)O)n1`, the concentration giving a half-maximal response (EC50) in [1] came to 22 µM; in data set [6], 20 µM; in data set [8] it was 22 µM. Also, the Kd in [2] is 2.61 µM; in data set [3], 1.71 µM; in [12] it was 1.97 µM. Further, the CC50 in the data set with CCRF-CEM was above 250 µM. The outcome in data set [4], in data set [7] and in [9] was Active. For the same compound, the Activity result in the data set with PBMC [5] is “Non-toxic”. For the same compound, the outcome with PBMC [10], in the data set with PBMC [11], in the data set with PBMC [13] and in the data set on PBMC [14] was inactive.
